Reference: patent US20220016101A1 (ACADIA Pharmaceuticals Inc., priority 2018, published 2022)

Tested on: patients with MDD and an inadequate response to an SSRI or SNRI
Test: Massachusetts General Hospital Sexual Functioning Index (MGH-SFI), Study ACP-103-042
Format: in vivo, human
Source text: “Massachusetts General Hospital Sexual Functioning Index (MGH-SFI)” is described, for instance, in Labbate and Lare, 2001, Psychother Psychosom. 70(4):221-225. This is a patient facing questionnaire that quantifies sexual dysfunction into 5 functional domains (“interest in sex,” “sexual arousal,” “ability to achieve orgasm,” “ability to maintain erection” (males only), and “sexual satisfaction”). Patients rate each item using a 6-point scale ranging from 1 (good function) to 6 (poor function). High scores indicate poor sexual functioning. […] The determination of the subject's status and eligibility for randomization in Stage 2 was made in a double-blind manner. […] Sexual functioning was assessed using the Massachusetts General Hospital Sexual Functioning Index or MGH-SFI (Labbate and Lare, 2001, Psychother Psychosom. 70(4):221-225). This is a patient facing questionnaire that quantifies sexual dysfunction into 5 functional domains (“interest in sex,” “sexual arousal,” “ability to achieve orgasm,” “ability to maintain erection” [malesonly], and “sexual satisfaction”). Patients rate each item using a 6-point scale ranging from 1 (good function) to 6 (poor function). The time frame for this scale is the past month. This scale was administered at baseline and Week 5 in both stages of the study. High scores indicate poor sexual functioning. In ACP-103-042 the mean scores for MGH-SFI at Baseline was calculated over all 5 domains for males and the 4 domains for females. For MGH-SFI (follow-up version) at Study Weeks 5 and 10, the mean was calculated in the same way as MGH-SFI at Baseline. […] Tables 10-27 summarize the detailed data of MGH-SFI individual items of the overall study group (Tables 10-15), the subgroup of age of <=50 (Tables 16-21) and the subgroup of age of >50 (Table 21-26). In Tables 9-26, ANCOVA=analysis of covariance; OC=observed cases; LSM=least squares mean; CI=confidence interval; SD=standard deviation; SE=standard error. Stage 1: Baseline=Study Week 0, Week 5=Study Week 5; Stage 2: Baseline=Study Week 5, Week 5=Study Weeks 10. LSM from the stage-specific ANCOVA analysis with the change from baseline as the outcome, treatment group as a factor, and the corresponding Baseline value as a covariate. 2-sided p-value for treatment difference from the stage-specific ANCOVA analysis. An treatment effect size (Cohen's d) is calculated using the formula: Effect Size=Least Square mean difference between PIM and PBO/SD. The corresponding 95% confidence interval for an effect size is calculated based on the theoretical probability distribution of the effect size. […] Tables 10-15 and 28-38 summarize the detailed data of MGH-SFI individual items of the overall study group (Tables 10-15), the female subgroup (Tables 33-37) and the male subgroup (Table 38-43). An treatment effect size (Cohen's d) is calculated using the formula: Effect Size=Least Square mean difference between PIM and PBO/SD. The corresponding 95% confidence interval for an effect size is calculated based on the theoretical probability distribution of the effect size. In Tables 10-15 and 28-38, ANCOVA=analysis of covariance; OC=observed cases; LSM=least squares mean; CI=confidence interval; SD=standard deviation; SE=standard error. Stage 1: Baseline=Study Week 0, Week 5=Study Week 5; Stage 2: Baseline=Study Week 5, Week 5=Study Weeks 10. LSM from the stage-specific ANCOVA analysis with the change from baseline as the outcome, treatment group as a factor, and the corresponding Baseline value as a covariate. 2-sided p-value for treatment difference from the stage-specific ANCOVA analysis. An treatment effect size (Cohen's d) is calculated using the formula: Effect Size=Least Square mean difference between PIM and PBO/SD. The corresponding 95% confidence interval for an effect size is calculated based on the theoretical probability distribution of the effect size.

[1] = female subgroup, Stage 2, positive = pimavanserin better than placebo
[2] = male subgroup, Stage 1 (Study Week 0 to 5), PIM 34 mg
[3] = male subgroup, Stage 1 (Study Week 5), PIM 34 mg
[4] = male subgroup, Stage 1, PIM 34 mg
[5] = male subgroup, Stage 1, PIM 34 mg vs placebo, change from baseline to Week 5
[6] = male subgroup, Stage 1, PIM 34 mg, Week 5
[7] = male subgroup, Stage 2 (Study Week 5 to 10), PIM 34 mg
[8] = male subgroup, Stage 2 (Study Week 10), PIM 34 mg

In the case of `CC(C)COc1ccc(CNC(=O)N(Cc2ccc(F)cc2)C2CCN(C)CC2)cc1` [pimavanserin, N-(4-Fluorophenylmethyl)-N-(1-methylpiperidin-4-yl)-N′-(4-(2-methylpropyloxy)phenylmethyl)carbamide], the “MGH-SFI 05: Overall Sexual Satisfaction, Effect Size (Cohen's d)” value [1] is reported as 0.227, the “MGH-SFI 06: Overall Improvement Since Last Medication Change, Effect Size (Cohen's d)” value [1] is reported as 0.167 and the “MGH-SFI 01: Interest in Sex, Change from Baseline to Week 5 Mean (SE)” value [2] is reported as −0.6 (1.04). For the same compound, the “MGH-SFI 01: Interest in Sex, Change from Baseline to Week 5 Median” value [2] was −1.0, the “MGH-SFI 01: Interest in Sex, Week 5 Mean (SE)” value [3] was 4.1 (0.63) and the “MGH-SFI 01: Interest in Sex, Week 5 Median” value [3] was 5.0. The “MGH-SFI Item 02: Ability to Get Sexually Aroused or Excited, Change from Baseline to Week 5, Mean (SE)” value [4] was −0.7 (0.61), the “MGH-SFI Item 02: Ability to Get Sexually Aroused or Excited, Change from Baseline to Week 5, Median” value [4] was 0.0 and the “MGH-SFI Item 03: Ability to Achieve Orgasm, Change from Baseline to Week 5, Mean (SE)” value [4] was −0.4 (0.61). For the same compound, the “MGH-SFI Item 03: Ability to Achieve Orgasm, Change from Baseline to Week 5, Median” value [4] was 0.0, the “MGH-SFI Item 04: (Men) Ability to Get and Maintain an Erection, Change from Baseline to Week 5, Mean (SE)” value [4] was −0.3 (0.78) and the “MGH-SFI Item 04: (Men) Ability to Get and Maintain an Erection, Change from Baseline to Week 5, Median” value [4] was 0.0. For the same compound, the “MGH-SFI Item 05: Overall Sexual Satisfaction, Change from Baseline to Week 5, Mean (SE)” value [4] was −0.6 (0.81), the “MGH-SFI Item 05: Overall Sexual Satisfaction, Change from Baseline to Week 5, Median” value [4] was 0.0 and the “MGH-SFI Item 06: Overall Improvement Since Last Medication Change, Effect Size (Cohen's d)” value (male subgroup, Stage 1, PIM 34 mg vs placebo, Week 5) was 0.257. For the same compound, the “MGH-SFI Item 02: Ability to Get Sexually Aroused or Excited, Effect Size (Cohen's d)” value [5] was 0.358, the “MGH-SFI Item 03: Ability to Achieve Orgasm, Effect Size (Cohen's d)” value [5] was 0.053 and the “MGH-SFI Item 04: (Men) Ability to Get and Maintain an Erection, Effect Size (Cohen's d)” value [5] was 0.105. For the same compound, the “MGH-SFI Item 05: Overall Sexual Satisfaction, Effect Size (Cohen's d)” value [5] was 0.047, the “MGH-SFI Item 02: Ability to Get Sexually Aroused or Excited, Week 5, Mean (SE)” value [6] was 3.7 (0.68) and the “MGH-SFI Item 02: Ability to Get Sexually Aroused or Excited, Week 5, Median” value [6] was 4.0. For the same compound, the “MGH-SFI Item 03: Ability to Achieve Orgasm, Week 5, Mean (SE)” value [6] was 4.1 (0.74), the “MGH-SFI Item 03: Ability to Achieve Orgasm, Week 5, Median” value [6] was 5.0 and the “MGH-SFI Item 04: (Men) Ability to Get and Maintain an Erection, Week 5, Mean (SE)” value [6] was 3.9 (0.70). The “MGH-SFI Item 04: (Men) Ability to Get and Maintain an Erection, Week 5, Median” value [6] was 3.0, the “MGH-SFI Item 05: Overall Sexual Satisfaction, Week 5, Mean (SE)” value [6] was 4.6 (0.69) and the “MGH-SFI Item 05: Overall Sexual Satisfaction, Week 5, Median” value [6] was 5.0. The “MGH-SFI Item 06: Overall Improvement Since Last Medication Change, Week 5, Mean (SE)” value [6] was 3.3 (0.64), the “MGH-SFI Item 06: Overall Improvement Since Last Medication Change, Week 5, Median” value [6] was 3.0 and the “MGH-SFI 01: Interest in Sex, Effect Size (Cohen's d)” value (male subgroup, Stage 1, positive = pimavanserin better than placebo) was 0.104. For the same compound, the “MGH-SFI 01: Interest in Sex, Change from Baseline to Week 5 Mean (SE)” value [7] was −0.8 (0.32), the “MGH-SFI 01: Interest in Sex, Change from Baseline to Week 5 Median” value [7] was −1.0 and the “MGH-SFI 01: Interest in Sex, Week 5 Mean (SE)” value [8] was 3.6 (0.47). For the same compound, the “MGH-SFI 01: Interest in Sex, Week 5 Median” value [8] was 4.0 and the “MGH-SFI Item 02: Ability to Get Sexually Aroused or Excited, Change from Baseline to Week 5, Mean (SE)” value (male subgroup, Stage 2, PIM 34 mg) was −0.6 (0.29).
